Data: PubChem BioAssay (NCI)
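Growth conditions: 96-well plates. Treatment: test compound, 48 hours, 5 concentrations. Analysis: linear interpolation between bracketing concentrations; unreached endpoints set to highest concentration. The concentration for 50% growth inhibition is given as GI50. TGI is the concentration that stops growth completely.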

Experiments:
Assay in all cases: growth of human tumour cells (NCI), 48 h
786-0 renal = system: 786-0 renal
A498 renal = system: A498 renal
A549 NSCLC = system: A549 NSCLC
ACHN renal = system: ACHN renal
BT-549 breast = system: BT-549 breast
CAKI-1 renal = system: CAKI-1 renal
CCRF-CEM leukemia = system: CCRF-CEM leukemia
COLO 205 colon = system: COLO 205 colon
DU-145 prostate = system: DU-145 prostate
EKVX NSCLC = system: EKVX NSCLC
HCC-2998 colon = system: HCC-2998 colon
HCT-116 colon = system: HCT-116 colon
HCT-15 colon = system: HCT-15 colon
HL-60(TB) leukemia = system: HL-60(TB) leukemia
HOP-62 NSCLC = system: HOP-62 NSCLC
HOP-92 NSCLC = system: HOP-92 NSCLC
HS 578T breast = system: HS 578T breast
HT29 colon = system: HT29 colon
IGROV1 ovarian = system: IGROV1 ovarian
K-562 leukemia = system: K-562 leukemia
KM12 colon = system: KM12 colon
LOX IMVI melanoma = system: LOX IMVI melanoma
M14 melanoma = system: M14 melanoma
MALME-3M melanoma = system: MALME-3M melanoma
MCF7 breast = system: MCF7 breast
MDA-MB-231 breast = system: MDA-MB-231 breast
MOLT-4 leukemia = system: MOLT-4 leukemia
NCI-H226 lung = system: NCI-H226 lung
NCI-H23 lung = system: NCI-H23 lung

N#Cc1ccc(/C=N/NC(=O)c2[nH]c3ccc(Br)cc3c2-c2ccccc2)s1
GI50 (786-0 renal): 395 nM | TGI (786-0 renal): 13200 nM | GI50 (A498 renal): 6540 nM | TGI (A498 renal): 22500 nM | GI50 (A549 NSCLC): 379 nM | TGI (A549 NSCLC): 13000 nM | GI50 (ACHN renal): 277 nM | TGI (ACHN renal): 9750 nM | GI50 (BT-549 breast): 250 nM | TGI (BT-549 breast): 1330 nM | GI50 (CAKI-1 renal): 374 nM | TGI (CAKI-1 renal): 17200 nM | GI50 (CCRF-CEM leukemia): 173 nM | TGI (CCRF-CEM leukemia): > 100000 nM | GI50 (COLO 205 colon): 1690 nM | TGI (COLO 205 colon): 4860 nM | GI50 (DU-145 prostate): 365 nM | TGI (DU-145 prostate): 13700 nM | GI50 (EKVX NSCLC): 1210 nM | TGI (EKVX NSCLC): 26300 nM | GI50 (HCC-2998 colon): 488 nM | TGI (HCC-2998 colon): 9650 nM | GI50 (HCT-116 colon): 118 nM | TGI (HCT-116 colon): 11100 nM | GI50 (HCT-15 colon): 129 nM | TGI (HCT-15 colon): 9510 nM | GI50 (HL-60(TB) leukemia): 52.9 nM | TGI (HL-60(TB) leukemia): 617 nM | GI50 (HOP-62 NSCLC): 519 nM | TGI (HOP-62 NSCLC): 11600 nM | GI50 (HOP-92 NSCLC): 645 nM | TGI (HOP-92 NSCLC): 11600 nM | GI50 (HS 578T breast): 616 nM | TGI (HS 578T breast): 24700 nM | GI50 (HT29 colon): 148 nM | TGI (HT29 colon): 6900 nM | GI50 (IGROV1 ovarian): 221 nM | TGI (IGROV1 ovarian): 9100 nM | GI50 (K-562 leukemia): 109 nM | TGI (K-562 leukemia): > 100000 nM | GI50 (KM12 colon): 793 nM | TGI (KM12 colon): 18700 nM | GI50 (LOX IMVI melanoma): 309 nM | TGI (LOX IMVI melanoma): 1430 nM | GI50 (M14 melanoma): 235 nM | TGI (M14 melanoma): 14600 nM | GI50 (MALME-3M melanoma): 564 nM | TGI (MALME-3M melanoma): 24900 nM | GI50 (MCF7 breast): 110 nM | TGI (MCF7 breast): 5870 nM | GI50 (MDA-MB-231 breast): 545 nM | TGI (MDA-MB-231 breast): 4000 nM | GI50 (MOLT-4 leukemia): 243 nM | TGI (MOLT-4 leukemia): 30200 nM | GI50 (NCI-H226 lung): 579 nM | TGI (NCI-H226 lung): 6270 nM | GI50 (NCI-H23 lung): 254 nM
